Results from ChEMBL document CHEMBL1144582, “Identification of arylsulfonamides as Aquaporin 4 inhibitors” (Bioorg Med Chem Lett, 2007).

Assays:
Oocyte = assay: Inhibition of human AQP4b-mediated water transport in Xenopus oocytes at 20 uM; format: cell-based
[1] = Inhibition of human AQP4b-mediated water transport in Xenopus oocytes; conditions: Oocyte

| IC50 [1] | Structure (SMILES) | inhibition (Oocyte) |
| --- | --- | --- |
|  | CC(=O)Nc1ccc(S(N)(=O)=O)cc1 | 23% |
|  | CCOc1ccc2nc(S(N)(=O)=O)sc2c1 | 68% |
| 0.9 µM | CC(=O)Nc1nnc(S(N)(=O)=O)s1 [ACETAZOLAMIDE] |  |
